Test results from the CheMixHub drug solubility set.

Test: xn = mol fraction of the nth substance listed, in the solute-free solvent

Cl.c1ccc2c(CC3=NCCN3)cccc2c1 + COCCO + CC(C)O
solubility (g/100 g solution)
Conditions | 278.15 K | 283.15 K | 288.15 K | 293.15 K | 298.15 K | 303.15 K | 308.15 K | 313.15 K | 318.15 K | 323.15 K
x2 = 0.08067 | 0.345 | 0.391 | 0.44 | 0.493 | 0.56 | 0.628 | 0.702 | 0.778 | 0.867 | 0.926
x2 = 0.1649 | 0.526 | 0.602 | 0.687 | 0.775 | 0.873 | 0.969 | 1.09 | 1.19 | 1.32 | 1.42
x2 = 0.2529 | 0.638 | 0.792 | 0.944 | 1.03 | 1.25 | 1.45 | 1.56 | 1.82 | 1.98 | 2.32
x2 = 0.3449 | 0.753 | 0.926 | 1.09 | 1.32 | 1.53 | 1.8 | 2.05 | 2.36 | 2.58 | 2.87
x2 = 0.4412 | 1.03 | 1.18 | 1.29 | 1.51 | 1.68 | 1.89 | 2.09 | 2.36 | 2.6 | 2.87
x2 = 0.5422 | 1.45 | 1.58 | 1.73 | 1.92 | 2.17 | 2.43 | 2.69 | 2.97 | 3.24 | 3.61
x2 = 0.6482 | 1.84 | 2.01 | 2.28 | 2.46 | 2.77 | 2.98 | 3.37 | 3.59 | 3.82 | 4.19
x2 = 0.7595 | 2.35 | 2.52 | 2.78 | 3.06 | 3.34 | 3.67 | 4.04 | 4.45 | 4.93 | 5.36
x2 = 0.8767 | 2.49 | 2.71 | 3.03 | 3.29 | 3.7 | 3.95 | 4.34 | 4.64 | 4.96 | 5.33

O=C(O)c1ccc(-n2nc(-c3ccccc3O)nc2-c2ccccc2O)cc1 + CC(O)CO + CO
298.15 K
Conditions | solubility (g/100 g solution)
x2 = 0.0447 | 13.5
x2 = 0.09525 | 14.2
x2 = 0.1529 | 14.4
x2 = 0.2192 | 14.6
x2 = 0.2963 | 14.2
x2 = 0.3871 | 13.7
x2 = 0.4956 | 12.9
x2 = 0.6275 | 11.8
x2 = 0.7912 | 10.4

CC(C)Oc1ccc2c(=O)c(-c3ccccc3)coc2c1 + CC(=O)N(C)C + CCO
solubility (g/100 g solution)
Conditions | 278.15 K | 283.15 K | 288.15 K | 293.15 K | 298.15 K | 303.15 K | 308.15 K | 313.15 K | 318.15 K | 323.15 K
x2 = 0.1146 | 1.53 | 1.91 | 2.45 | 3.3 | 4.13 | 5.36 | 7.01 | 8.71 | 11 | 14
x2 = 0.2681 | 2.21 | 2.72 | 3.46 | 4.21 | 5.26 | 6.49 | 8.02 | 9.92 | 12.2 | 15.1
x2 = 0.4379 | 4.02 | 4.85 | 5.82 | 7.08 | 8.67 | 10.2 | 12.4 | 14.5 | 17.7 | 21.8
x2 = 0.6771 | 6.41 | 8.04 | 9.6 | 11.1 | 13 | 15.4 | 18 | 21.2 | 25 | 28.9

Cl.c1ccc2c(CC3=NCCN3)cccc2c1 + CO + CCO
solubility (g/100 g solution)
Conditions | 278.15 K | 283.15 K | 288.15 K | 293.15 K | 298.15 K | 303.15 K | 308.15 K | 313.15 K | 318.15 K | 323.15 K
x2 = 0.1377 | 2.14 | 2.61 | 3.11 | 3.69 | 4.45 | 5.14 | 5.88 | 6.74 | 7.61 | 8.5
x2 = 0.2644 | 3.05 | 3.54 | 3.96 | 4.7 | 5.27 | 6.18 | 7.06 | 8.2 | 9.28 | 10.6
x2 = 0.3812 | 3.8 | 4.39 | 5.05 | 5.74 | 6.63 | 7.58 | 8.73 | 9.78 | 11.4 | 12.7
x2 = 0.4894 | 4.21 | 4.86 | 5.45 | 6.36 | 7.17 | 8 | 9.31 | 10.4 | 11.9 | 13.2
x2 = 0.5898 | 4.47 | 5.59 | 6.2 | 7.21 | 8.02 | 9.29 | 10.6 | 11.7 | 13.2 | 14.6
x2 = 0.6832 | 4.86 | 5.8 | 6.77 | 7.78 | 8.82 | 10 | 11.3 | 12.8 | 14.4 | 16.1
x2 = 0.7704 | 5.03 | 6.14 | 7.26 | 8.67 | 10.3 | 11.5 | 13.1 | 14.6 | 16.2 | 18.3
x2 = 0.8519 | 5.48 | 6.63 | 7.79 | 9.34 | 11 | 13.3 | 14.8 | 16.8 | 18.5 | 20.5
x2 = 0.9283 | 5.66 | 6.83 | 8.15 | 9.82 | 11.7 | 14 | 15.7 | 18 | 19.9 | 21.9

O=C(O)c1ccc(-n2nc(-c3ccccc3O)nc2-c2ccccc2O)cc1 + CC(O)CO + CCO
298.15 K
Conditions | solubility (g/100 g solution)
x2 = 0.06303 | 11.6
x2 = 0.1315 | 12.2
x2 = 0.206 | 12.8
x2 = 0.2875 | 13.4
x2 = 0.3771 | 13.7
x2 = 0.4759 | 13.4
x2 = 0.5855 | 12.4
x2 = 0.7077 | 11.2
x2 = 0.8449 | 10.1

CCc1cccc2c3c([nH]c12)C(CC)(CC(=O)O)OCC3 (stereo not drawn) + CC(C)=O + CCCCCC
solubility (g/100 g solution)
Conditions | 278.15 K | 283.15 K | 288.15 K | 293.15 K | 298.15 K | 303.15 K | 308.15 K | 313.15 K | 318.15 K | 323.15 K
x2 = 0.2707 | 4.23 | 4.59 | 4.94 | 5.31 | 5.68 | 6.06 | 6.49 | 6.82 | 7.19 | 7.56
x2 = 0.4972 | 13.3 | 14.4 | 15.4 | 16.4 | 17.8 | 19 | 19.9 | 20.9 | 22 | 23
x2 = 0.69 | 22.1 | 23.7 | 25.3 | 26.8 | 28.7 | 31 | 32.8 | 34.7 | 36.7 | 38.4
x2 = 0.8558 | 20.2 | 21.8 | 23.3 | 24.9 | 26.6 | 28.4 | 29.9 | 31.4 | 33.3 | 34.8

CCc1cccc2c3c([nH]c12)C(CC)(CC(=O)O)OCC3 (stereo not drawn) + COC(C)=O + CCCCCC
solubility (g/100 g solution)
Conditions | 278.15 K | 283.15 K | 288.15 K | 293.15 K | 298.15 K | 303.15 K | 308.15 K | 313.15 K | 318.15 K | 323.15 K
x2 = 0.2255 | 1.11 | 1.18 | 1.26 | 1.35 | 1.42 | 1.5 | 1.61 | 1.69 | 1.76 | 1.86
x2 = 0.4369 | 3.55 | 3.98 | 4.43 | 4.96 | 5.39 | 5.87 | 6.35 | 6.88 | 7.34 | 7.96
x2 = 0.6357 | 4.26 | 5.33 | 6.41 | 7.66 | 8.86 | 9.93 | 11.4 | 12.9 | 14.1 | 15.7
x2 = 0.8229 | 10.8 | 12.1 | 13.6 | 15.1 | 16.7 | 18.3 | 20.2 | 22.4 | 24.4 | 26

Cc1cc(Cl)cc(C(=O)O)c1N + CC(C)=O + CCCCCC
solubility (g/100 g solution)
Conditions | 278.15 K | 283.15 K | 288.15 K | 293.15 K | 298.15 K | 303.15 K | 308.15 K | 313.15 K | 318.15 K | 323.15 K
x2 = 0.2386 | 0.677 | 0.753 | 0.884 | 1.03 | 1.18 | 1.35 | 1.58 | 1.88 | 2.21 | 2.59
x2 = 0.4322 | 1.29 | 1.42 | 1.66 | 1.92 | 2.18 | 2.5 | 2.92 | 3.45 | 4.05 | 4.74
x2 = 0.5923 | 1.87 | 2.05 | 2.39 | 2.75 | 3.12 | 3.56 | 4.16 | 4.9 | 5.75 | 6.71
x2 = 0.7271 | 2.4 | 2.64 | 3.07 | 3.53 | 3.99 | 4.55 | 5.31 | 6.25 | 7.32 | 8.52
x2 = 0.842 | 2.91 | 3.2 | 3.71 | 4.26 | 4.81 | 5.48 | 6.38 | 7.5 | 8.77 | 10.2
x2 = 0.9411 | 3.39 | 3.72 | 4.31 | 4.95 | 5.58 | 6.35 | 7.38 | 8.66 | 10.1 | 11.7
